{"source": "patent US6218546A", "about": "“Reagent for the detection and isolation of carbohydrates or glycan receptors” (Roche Diagnostics GmbH, priority 1995, dated 2001)", "key": {"[1]": {"experiment": "Stability of marker and saccharide conjugates (HPLC analysis)", "type": "physicochemical", "details": "after one week in MeOH at 25° C."}, "[2]": {"biological_target": "T1, digoxigenin-labelled MAA lectin (Maackia amurensis, UniProt P0DKL3)", "T1 sequence (P0DKL3 30-278 limits assumed)": "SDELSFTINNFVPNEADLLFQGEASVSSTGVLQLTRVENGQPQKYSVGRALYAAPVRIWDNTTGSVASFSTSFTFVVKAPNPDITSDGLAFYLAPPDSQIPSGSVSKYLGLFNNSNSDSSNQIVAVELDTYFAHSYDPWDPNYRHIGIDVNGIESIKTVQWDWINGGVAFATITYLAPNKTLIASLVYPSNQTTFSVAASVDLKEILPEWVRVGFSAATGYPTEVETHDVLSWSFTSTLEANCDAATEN", "experiment": "Detection of immobilized sugar derivative with digoxigenin-labelled MAA lectin on streptavidin microtitre plate", "type": "binding", "details": "0.5-20 pmol/well, read at 405 nm", "method": "Derivatized N-acetyl-neuraminosyl-2,3-D-lactose in TBS is incubated for 4 h at room temperature on a microtitre plate coated with streptavidin as a model substance to test the standard conditions. After immobilization of the sugar derivative (0.5-20 pmol/well in the microtitre plate; dissolved in TBS) the wells are washed five times with 0.25 ml TBS. In order to bind the digoxigenin-labelled MAA lectin (specific for N-acetyl-neuraminosyl-α(2-3)Gal residues) 1-10 μg of the lectin is dissolved in 1 ml TBSM (TBSM=TBS containing 1 mM MgCl2, 1 mM MnCl2 and 1 mM CaCl2) containing 0.5% blocking reagent (Boehringer Mannheim) and subsequently 0.2 ml of the lectin solution/well is incubated for 1 hour at room temperature while shaking gently. After the lectin has bound the wells are washed five times with 0.25 ml buffer (TBST=TBS containing 0.1% Tween-20®). […] The colour development is read at 405 nm and RT after an incubation period of ca. 20 to 30 min. […]\nFor the detection of N-acetyl-neuraminosyl-2,3-D-lactose the wells are washed five times with 0.25 ml TBS after immobilization of the sugar derivative (0.5-20 pmol/well in the microtitre plate; dissolved in TBS). […] The colour development is read at 405 nm and RT after an incubation period of ca. 20 to 30 min. […]"}, "[3]": {"biological_target": "T1, digoxigenin-labelled MAA lectin", "experiment": "Inhibition of digoxigenin-labelled MAA lectin binding to immobilized fetuin sugar derivatives on streptavidin microtitre plate", "details": "fetuin sugar derivatives (10 pmol) on the MTP"}, "[4]": {"biological_target": "digoxigenin-labelled SNA lectin (Sambucus nigra, UniProt Q41358)", "sequence (Q41358 309-570 limits assumed)": "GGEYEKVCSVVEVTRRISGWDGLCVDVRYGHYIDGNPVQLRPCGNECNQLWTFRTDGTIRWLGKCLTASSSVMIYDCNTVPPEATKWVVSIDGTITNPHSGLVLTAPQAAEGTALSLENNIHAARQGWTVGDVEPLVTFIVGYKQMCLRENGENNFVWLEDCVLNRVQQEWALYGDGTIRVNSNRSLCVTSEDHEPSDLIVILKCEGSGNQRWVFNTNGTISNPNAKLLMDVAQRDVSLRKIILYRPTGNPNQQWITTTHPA", "sequence (Q41358 29-292 partner limits assumed)": "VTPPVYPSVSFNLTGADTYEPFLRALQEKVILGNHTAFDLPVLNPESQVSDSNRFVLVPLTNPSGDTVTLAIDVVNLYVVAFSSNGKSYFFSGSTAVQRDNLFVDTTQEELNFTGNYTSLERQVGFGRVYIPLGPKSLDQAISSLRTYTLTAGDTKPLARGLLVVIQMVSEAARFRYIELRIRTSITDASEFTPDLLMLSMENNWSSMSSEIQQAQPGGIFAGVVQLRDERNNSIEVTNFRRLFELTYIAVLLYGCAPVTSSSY", "type": "binding", "details": "saccharide added to wells containing SNA as the lectin; fetuin sugar derivatives (10 pmol)"}}, "data": [{"smiles": "NNC(=O)NCCNC(=O)c1ccccc1N=Nc1ccc(O)cc1", "note": "[marker 4, 2-[2'-(4\"-hydroxybenzeneazo)-benzoic acid amido]-ethylsemicarbazide]", "values": [{"measurement": "decomposition of the marker", "setting": "[1]", "result": "no decomposition"}]}, {"smiles": "CC(=O)NC1C(O)CC(OC2C(O)C(CO)OC(OC3C(CO)OC(NNC(=O)NCCNC(=O)c4ccccc4N=Nc4ccc(O)cc4)C(O)C3O)C2O)(C(=O)O)OC1C(O)C(O)CO", "note": "(stereo not drawn)", "values": [{"measurement": "detection limit", "setting": "[2]; conjugate with BNAH (Example 6)", "result": 0.5, "unit": "pmol"}, {"measurement": "detection limit", "setting": "[2]; conjugate with marker 4 (Example 4)", "result": 0.5, "unit": "pmol"}]}, {"smiles": "CC(=O)NC1C(O)CC(OC2C(O)C(CO)OC(OC3C(CO)OC(O)C(O)C3O)C2O)(C(=O)O)OC1C(O)C(O)CO", "note": "[N-acetyl-neuraminosyl-2,3-D-lactose]", "values": [{"measurement": "signal strength, % of the value without inhibition", "setting": "[3]; 200 pmol added", "result": "about 50%"}, {"measurement": "signal strength, % of the value without inhibition", "setting": "[3]; 500 pmol added", "result": "about 15%"}, {"measurement": "inhibition of lectin signal", "setting": "[4]", "result": "no inhibition"}]}]}
